Measurements published in paper PMC7434893 (British Journal of Cancer, 2020).
Values joined by “and” are separate entries in the source; they are usually repeats but may differ in a detail not shown here. Identical values can stand only once.

Tests used:
[1] = Food-effect pharmacokinetics, expansion cohort; type: in vivo, human; conditions: for Cmax / AUC(0-24h) / AUC(0-inf) / AUC(0-t) / Rac / t1/2 / tmax: 600 mg; for Cmax / AUC(0-24h) / AUC(0-inf) / AUC(0-t) / Rac / t1/2: mean (SD); for tmax: median (min, max)
Procedure: Fed patients were administered E7449 immediately after consuming a meal. Patients were then crossed over to the alternate food regimen on day 15.

[2] = test system: human colon cancer SW480 cells; conditions: cited from earlier work
[3] = test system: NCI-H211; experiment: 8-day growth inhibition; type: cell-based; conditions: SCLC, NCI-H211, 8-day assay
[4] = test system: NCI-H209; experiment: 8-day growth inhibition; type: cell-based; conditions: SCLC, NCI-H209, 8-day assay
[5] = test system: HEC-6; experiment: 8-day growth inhibition; type: cell-based; conditions: Endometrial, HEC-6, 8-day assay
[6] = test system: HEC-151; experiment: 8-day growth inhibition; type: cell-based; conditions: Endometrial, HEC-151, 8-day assay
[7] = test system: NCEB-1; experiment: 8-day growth inhibition; type: cell-based; conditions: MCL, NCEB-1, 8-day assay
[8] = test system: HEC-251; experiment: 8-day growth inhibition; type: cell-based; conditions: Endometrial, HEC-251, 8-day assay
[9] = test system: HEC-265; experiment: 8-day growth inhibition; type: cell-based; conditions: Endometrial, HEC-265, 8-day assay
[10] = test system: U266; experiment: 8-day growth inhibition; type: cell-based; conditions: Myeloma, U266, 8-day assay
[11] = test system: PARP; conditions: 100 mg/kg, preclinical studies; cited from earlier work
[12] = test system: NCI-H69; experiment: 8-day growth inhibition; type: cell-based; conditions: SCLC, NCI-H69, 8-day assay
[13] = test system: NCI-H524; experiment: 8-day growth inhibition; type: cell-based; conditions: SCLC, NCI-H524, 8-day assay
[14] = test system: PARP1; conditions: read-out: IC50, enzymatic activity of PARP1; cited from earlier work
[15] = test system: MV-4-11; experiment: 8-day growth inhibition; type: cell-based; conditions: AML, MV-4-11, 8-day assay
[16] = test system: MDA-MB-436; experiment: 8-day growth inhibition; type: cell-based; conditions: Breast, MDA-MB-436, 8-day assay
[17] = test system: Hs578T; experiment: 8-day growth inhibition; type: cell-based; conditions: Breast, 8-day assay
[18] = test system: NCI-H1694; experiment: 8-day growth inhibition; type: cell-based; conditions: SCLC, NCI-H1694, 8-day assay
[19] = test system: MDA-MB-231; experiment: 8-day growth inhibition; type: cell-based; conditions: Breast, MDA-MB-231, 8-day assay
[20] = test system: MCF-7; experiment: 8-day growth inhibition; type: cell-based; conditions: Breast, MCF-7, 8-day assay

O=c1[nH]nc2c3c(cccc13)N=C(CN1Cc3ccccc3C1)N2 [E7449]
Cmax ([1]; fasted (n=10)): 1470 (697) ng/mL | AUC(0-24h) ([1]; fasted): 5510 (1730) (n=9) ng·h/mL | AUC(0-inf) ([1]; fasted): 4480 (1850) (n=2) ng·h/mL | AUC(0-t) ([1]; fasted): 5310 (1780) (n=10) ng·h/mL | Rac ([1]; fasted): 1.07 (0.03) (n=2) | t1/2 ([1]; fasted): 6.11 (0.74) (n=2) h | tmax ([1]; fasted): 2.01 (0.97, 3.00) h | Cmax ([1]; fed (n=11)): 863 (563) ng/mL | AUC(0-24h) ([1]; fed): 6150 (3280) ng·h/mL | AUC(0-inf) ([1]; fed): 6600 (1430) (n=5) ng·h/mL | AUC(0-t) ([1]; fed): 6150 (3270) ng·h/mL | Rac ([1]; fed): 1.08 (0.12) (n=5) | t1/2 ([1]; fed): 5.64 (3.17) (n=5) h | tmax ([1]; fed): 4.05 (1.07, 8.18) h | Increase in AUC (0–24 h or 0-t) with a high-fat meal ([1]; 600-mg dose): ~ 10% and 10% | Reduction in Cmax with a high-fat meal ([1]; 600-mg dose): 60% | Active and total β-catenin [2]: concomitant reduction | Axin2 levels [2]: significant increase | IC50 [3]: 480 nM | IC50 [4]: 620 nM | IC50 [5]: 1880 nM | IC50 [6]: 1440 nM | IC50 [7]: 5300 nM | IC50 [8]: 1260 nM | IC50 [9]: 2400 nM | IC50 [10]: 6700 nM | PARP inhibition in tumours [11]: sustained PARP inhibition | IC50 [12]: 1330 nM | IC50 [13]: 690 nM | IC50 [14]: 1 nM | IC50 [15]: 950 nM | IC50 [16]: 190 nM | IC50 [17]: 9600 nM | IC50 [18]: 2470 nM | IC50 [19]: 25000 nM | IC50 [20]: 1900 nM
